Data from patent US20050227999A1, “Diarylamine derivatives as calcium channel blockers” (NeuroMed Technologies Inc., priority 2004, published 2005).
Like-named read-outs stand apart in the source and are kept apart here.

Columns and labels:
[1] = target: T1, rat brain N-type calcium channel subunits (α1B+α2δ+β1b cDNA subunits) (Rattus norvegicus, UniProt Q02294); assay: N-type calcium channel block, whole cell patch clamp in transfected HEK 293 cells; assay type: cell-based; conditions: holding potential −80 mV to +10 mV
T1 construct: expressed in transfected cells; host or cells: HEK 293
T1 sequence (Q02294 whole entry): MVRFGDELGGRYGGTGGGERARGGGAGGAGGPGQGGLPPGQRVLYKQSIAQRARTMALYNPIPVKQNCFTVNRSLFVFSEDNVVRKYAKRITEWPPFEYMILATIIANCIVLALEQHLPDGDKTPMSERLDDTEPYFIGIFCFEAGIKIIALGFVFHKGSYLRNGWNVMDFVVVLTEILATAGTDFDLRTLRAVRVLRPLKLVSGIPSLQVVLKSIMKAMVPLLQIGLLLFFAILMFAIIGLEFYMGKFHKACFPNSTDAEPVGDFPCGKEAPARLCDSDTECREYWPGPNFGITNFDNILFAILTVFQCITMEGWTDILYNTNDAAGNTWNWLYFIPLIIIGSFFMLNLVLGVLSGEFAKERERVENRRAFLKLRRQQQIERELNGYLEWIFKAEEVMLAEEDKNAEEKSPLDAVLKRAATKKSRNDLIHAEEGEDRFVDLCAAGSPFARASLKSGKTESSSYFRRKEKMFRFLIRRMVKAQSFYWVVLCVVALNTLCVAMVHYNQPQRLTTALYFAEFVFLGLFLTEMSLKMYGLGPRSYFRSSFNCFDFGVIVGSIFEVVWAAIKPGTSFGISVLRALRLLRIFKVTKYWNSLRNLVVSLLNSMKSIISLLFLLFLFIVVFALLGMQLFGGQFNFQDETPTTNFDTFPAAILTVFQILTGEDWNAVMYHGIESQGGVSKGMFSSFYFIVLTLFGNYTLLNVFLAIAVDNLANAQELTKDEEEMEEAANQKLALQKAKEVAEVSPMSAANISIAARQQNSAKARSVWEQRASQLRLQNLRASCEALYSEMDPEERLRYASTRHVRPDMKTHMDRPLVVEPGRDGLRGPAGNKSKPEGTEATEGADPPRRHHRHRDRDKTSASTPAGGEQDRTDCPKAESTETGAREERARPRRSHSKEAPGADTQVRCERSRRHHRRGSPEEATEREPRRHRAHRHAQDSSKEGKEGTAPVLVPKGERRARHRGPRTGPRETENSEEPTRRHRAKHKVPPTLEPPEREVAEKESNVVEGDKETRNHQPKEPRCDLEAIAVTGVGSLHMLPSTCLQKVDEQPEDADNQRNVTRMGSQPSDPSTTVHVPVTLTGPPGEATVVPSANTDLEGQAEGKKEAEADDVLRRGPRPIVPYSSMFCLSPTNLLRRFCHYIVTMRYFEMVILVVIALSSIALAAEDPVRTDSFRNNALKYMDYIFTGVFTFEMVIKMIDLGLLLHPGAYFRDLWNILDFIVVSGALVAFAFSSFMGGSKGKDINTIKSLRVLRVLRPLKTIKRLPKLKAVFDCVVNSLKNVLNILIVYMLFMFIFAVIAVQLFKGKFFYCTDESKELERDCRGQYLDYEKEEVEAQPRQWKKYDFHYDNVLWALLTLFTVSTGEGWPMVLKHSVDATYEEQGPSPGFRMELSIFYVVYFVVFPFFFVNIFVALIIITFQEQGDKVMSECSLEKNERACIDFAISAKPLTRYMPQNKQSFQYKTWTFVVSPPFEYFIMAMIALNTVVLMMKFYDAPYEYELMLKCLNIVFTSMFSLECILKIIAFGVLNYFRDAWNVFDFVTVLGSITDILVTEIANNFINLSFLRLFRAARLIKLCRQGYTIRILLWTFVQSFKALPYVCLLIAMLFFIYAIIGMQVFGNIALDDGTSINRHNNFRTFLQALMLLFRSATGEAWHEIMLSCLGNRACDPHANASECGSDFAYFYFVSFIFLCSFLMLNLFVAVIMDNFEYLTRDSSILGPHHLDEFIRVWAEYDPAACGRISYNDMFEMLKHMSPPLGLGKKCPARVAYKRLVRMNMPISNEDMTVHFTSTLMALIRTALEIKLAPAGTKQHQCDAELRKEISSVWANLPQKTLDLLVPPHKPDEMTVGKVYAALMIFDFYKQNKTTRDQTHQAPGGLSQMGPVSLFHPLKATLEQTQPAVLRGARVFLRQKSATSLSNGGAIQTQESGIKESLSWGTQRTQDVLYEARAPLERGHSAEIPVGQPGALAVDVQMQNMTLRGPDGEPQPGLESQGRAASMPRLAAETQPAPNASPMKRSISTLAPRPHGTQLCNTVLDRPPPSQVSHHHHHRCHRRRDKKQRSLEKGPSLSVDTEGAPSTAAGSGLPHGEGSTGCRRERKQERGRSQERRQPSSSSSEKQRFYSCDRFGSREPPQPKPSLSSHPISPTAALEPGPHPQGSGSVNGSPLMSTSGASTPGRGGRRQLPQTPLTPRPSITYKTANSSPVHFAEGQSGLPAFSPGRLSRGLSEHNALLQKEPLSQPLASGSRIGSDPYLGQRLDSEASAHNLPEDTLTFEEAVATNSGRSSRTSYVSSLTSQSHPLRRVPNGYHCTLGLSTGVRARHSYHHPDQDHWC
T1 sequence (P54290 25-944 partner limits assumed): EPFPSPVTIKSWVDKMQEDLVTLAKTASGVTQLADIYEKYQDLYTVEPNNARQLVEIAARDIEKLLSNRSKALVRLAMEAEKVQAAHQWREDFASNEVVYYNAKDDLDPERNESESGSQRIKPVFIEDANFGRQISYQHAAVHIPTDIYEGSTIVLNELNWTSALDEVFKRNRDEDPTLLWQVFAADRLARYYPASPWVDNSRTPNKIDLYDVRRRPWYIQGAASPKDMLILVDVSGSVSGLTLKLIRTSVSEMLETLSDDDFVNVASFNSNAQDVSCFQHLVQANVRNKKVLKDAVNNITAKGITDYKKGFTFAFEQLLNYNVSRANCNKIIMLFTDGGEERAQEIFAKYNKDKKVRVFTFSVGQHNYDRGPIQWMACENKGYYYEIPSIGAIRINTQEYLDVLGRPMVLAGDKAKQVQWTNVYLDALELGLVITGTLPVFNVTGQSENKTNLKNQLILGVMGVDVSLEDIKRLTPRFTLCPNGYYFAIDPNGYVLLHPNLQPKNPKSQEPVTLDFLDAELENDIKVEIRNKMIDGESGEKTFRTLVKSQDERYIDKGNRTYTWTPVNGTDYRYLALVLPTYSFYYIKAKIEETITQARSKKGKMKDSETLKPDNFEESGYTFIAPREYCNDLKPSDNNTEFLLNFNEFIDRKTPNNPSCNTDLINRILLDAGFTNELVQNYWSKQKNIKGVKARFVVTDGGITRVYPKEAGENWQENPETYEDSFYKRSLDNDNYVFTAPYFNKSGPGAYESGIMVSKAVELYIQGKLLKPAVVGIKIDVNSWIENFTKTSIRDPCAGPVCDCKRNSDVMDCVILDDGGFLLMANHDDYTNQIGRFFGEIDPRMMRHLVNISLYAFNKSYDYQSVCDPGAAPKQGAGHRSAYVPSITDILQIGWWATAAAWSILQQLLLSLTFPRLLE
T1 sequence (P54290 945-1091 partner limits assumed): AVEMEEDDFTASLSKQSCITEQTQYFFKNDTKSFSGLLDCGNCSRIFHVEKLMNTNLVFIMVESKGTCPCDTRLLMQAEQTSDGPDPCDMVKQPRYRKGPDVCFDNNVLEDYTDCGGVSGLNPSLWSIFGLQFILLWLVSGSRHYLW
T1 sequence (P54283 whole entry partner): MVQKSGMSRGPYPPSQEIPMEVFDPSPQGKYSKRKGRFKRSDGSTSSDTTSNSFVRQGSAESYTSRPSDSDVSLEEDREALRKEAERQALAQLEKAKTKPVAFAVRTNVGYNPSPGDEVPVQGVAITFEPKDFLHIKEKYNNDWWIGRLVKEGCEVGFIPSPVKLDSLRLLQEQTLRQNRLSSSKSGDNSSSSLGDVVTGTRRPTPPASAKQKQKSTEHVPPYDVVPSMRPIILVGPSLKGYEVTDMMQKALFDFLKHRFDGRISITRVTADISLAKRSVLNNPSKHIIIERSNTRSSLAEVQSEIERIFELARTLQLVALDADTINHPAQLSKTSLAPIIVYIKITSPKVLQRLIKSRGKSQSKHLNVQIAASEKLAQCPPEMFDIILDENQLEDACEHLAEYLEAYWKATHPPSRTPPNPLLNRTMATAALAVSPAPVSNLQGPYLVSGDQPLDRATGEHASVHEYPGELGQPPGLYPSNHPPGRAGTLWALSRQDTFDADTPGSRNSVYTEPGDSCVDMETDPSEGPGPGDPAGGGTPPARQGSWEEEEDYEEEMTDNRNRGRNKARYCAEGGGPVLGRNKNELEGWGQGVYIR
Description: N-type calcium channel blocking activity was assayed in human embryonic kidney cells, HEK 293, stably transfected with the rat brain N-type calcium channel subunits (α1B+α2δ+β1b cDNA subunits). Alternatively, N-type calcium channels (α1B+α2δ+β1b cDNA subunits), L-type channels (α1C+δ+β1b cDNA subunits) and P/Q-type channels (α1A+α2δ+β1b cDNA subunits) were transiently expressed in HEK 293 cells. Briefly, cells were cultured in Dulbecco's modified eagle medium (DMEM) supplemented with 10% fetal bovine serum, 200 U/ml penicillin and 0.2 mg/ml streptomycin at 37° C. with 5% CO2. At 85% confluency cells were split with 0.25% trypsin/l mM EDTA and plated at 10% confluency on glass coverslips. At 12 hours the medium was replaced and the cells transiently transfected using a standard calcium phosphate protocol and the appropriate calcium channel cDNA's. Fresh DMEM was supplied and the cells transferred to 28° C./5% CO2. Cells were incubated for 1 to 2 days before cell recording.
Whole cell patch clamp experiments were performed using an Axopatch 200B amplifier (Axon Instruments, Burlingame, Calif.) linked to a personal computer equipped with PCLAMP software. The external and internal recording solutions contained, respectively, 5 mM BaCl2, 10 mM MgCl2, 10 mM HEPES, 40 mM TEACl, 10 mM glucose, 87.5 mM CsCl (pH 7.2) and 108 mM CsMS, 4 mM MgCl2, 9 mM EGTA, 9 mM HEPES (pH 7.2). Currents were typically elicited from a holding potential of −80 mV to +10 mV using Clampex software (Axon Instruments). Typically, currents were first elicited with low frequency stimulation (0.067 Hz) and allowed to stabilize prior to application of the compounds. The compounds were then applied during the low frequency pulse trains for two to three minutes to assess tonic block, and subsequently the pulse frequency was increased to 0.2 Hz to assess frequency dependent block. Data were analyzed using Clampfit (Axon Instruments) and SigmaPlot 4.0 (Jandel Scientific). […]

[2] = target: T2, human α1G T-type channels (Homo sapiens, UniProt O43497); assay: T-type calcium channel block, patch clamp in HEK cell lines; assay type: cell-based
T2 construct: expressed in transfected cells
Description: Standard patch-clamp techniques were employed to identify blockers of T-type currents. Briefly, previously described HEK cell lines stably expressing human α1G T-type channels were used for all the recordings (passage #: 4-20, 37° C., 5% CO2). To obtain T-type currents, plastic dishes containing semi-confluent cells were positioned on the stage of a ZEISS AXIOVERT S100 microscope after replacing the culture medium with external solution (see below). Whole-cell patches were obtained using pipettes (borosilicate glass with filament, O.D.: 1.5 mm, I.D.: 0.86 mm, 10 cm length), fabricated on a SUTTER P-97 puller with resistance values of ˜5 MΩ (see below for internal solution).
In the non-inactivating protocol, the holding potential is set at −110 mV and with a pre-pulse at −100 mV for 1 second prior to the test pulse at 40 mV for 50 ms. […]
Test compounds were dissolved in external solution, 0.1-0.01% DMSO. After ˜10 min rest, they were applied by gravity close to the cell using a WPI microfil tubing. The “non-inactivated” pre-pulse was used to examine the resting block of a compound. The “inactivated” protocol was employed to study voltage-dependent block. However, the initial data shown below were mainly obtained using the non-inactivated protocol only. IC50 values are shown for various compounds of the invention in Table 4.

[3] = low frequency stimulation 0.067 Hz (tonic block), read-out: IC50 @ 0.067 Hz
[4] = pulse frequency 0.2 Hz (frequency dependent block), read-out: IC50 @ 0.2 Hz
[5] = −80 mV (inactivation protocol, voltage-dependent block), read-out: IC50 - 80 mV
[6] = −100 mV pre-pulse (non-inactivating protocol, resting block), read-out: IC50 - 100 mV
[7] = −100 mV pre-pulse (non-inactivating protocol, resting block)

| Structure (SMILES) | IC50 [1, 3] [nM] | IC50 [1, 4] [nM] | IC50 [2, 5] [nM] | IC50 [2, 6] [nM] | IC50 - 100 mV [2, 7] |
| --- | --- | --- | --- | --- | --- |
| O=C(CN1CCN(C(c2ccccc2)c2cccc(Cl)c2)CC1)N(c1ccccc1)c1ccccc1 (stereo not shown) [Compound 20, 2-{4-[(3-Chloro-phenyl)-phenyl-methyl]-piperazin-1-yl}-N,N-diphenyl-acetamide] | 340 | 320 | 33 | 114 | – |
| O=C(CN1CCN(C(c2ccccc2)c2cccc(Cl)c2Cl)CC1)N(c1ccccc1)c1ccccc1 (stereo not shown) [Compound 22, 2-{4-[(2,3-Dichloro-phenyl)-phenyl-methyl]-piperazin-1-yl}-N,N-diphenyl-acetamide] | 300 | 240 | 16 | 81 | – |
| O=C(CN(c1ccccc1)c1ccccc1)N1CCN(C(c2ccccc2)c2ccc(Cl)cc2)CC1 (stereo not shown) [Compound 4, 1-{4-[(4-Chloro-phenyl)-phenyl-methyl]-piperazin-1-yl}-2-diphenylamino-ethanone] | 550 | 500 | 748 | 3800 | – |
| O=C(CN(c1ccccc1)c1ccccc1)N1CCN(C(c2ccccc2)c2ccccc2)CC1 [Compound 1, 1-(4-Benzhydryl-piperazin-1-yl)-2-diphenylamino-ethanone] | 6630 | 6610 | 510 | 1350 | – |
| O=C(CN1CCN(C(c2ccccc2)c2ccc(Cl)cc2)CC1)N(c1ccccc1)c1ccccc1 (stereo not shown) [Compound 19, 2-{4-[(4-Chloro-phenyl)-phenyl-methyl]-piperazin-1-yl}-N,N-diphenyl-acetamide] | 190 | 110 | 22 | 72 | – |
| Cc1ccc(C(c2ccccc2)N2CCN(C(=O)CN(c3ccccc3)c3ccccc3)CC2)c(C)c1 (stereo not shown) [Compound 2, 1-{4-[(2,4-Dimethyl-phenyl)-phenyl-methyl]-piperazin-1-yl}-2-diphenylamino-ethanone] | 290 | 260 | 444 | 2000 | – |
| O=C(CN(c1ccccc1)c1ccccc1)N1CCN(C(c2ccccc2)c2cccc(Cl)c2)CC1 (stereo not shown) [Compound 5, 1-{4-[(3-Chloro-phenyl)-phenyl-methyl]-piperazin-1-yl}-2-diphenylamino-ethanone] | 310 | 280 | 800 | – | no effect |
| O=C(CN1CCN(C(c2ccccc2)c2ccc(Cl)cc2Cl)CC1)N(c1ccccc1)c1ccccc1 (stereo not shown) [Compound 17, 2-{4-[(2,4-Dichloro-phenyl)-phenyl-methyl]-piperazin-1-yl}-N,N-diphenyl-acetamide] | 830 | 510 | 29 | 118 | – |
| O=C(CN(c1ccccc1)c1ccccc1)N1CCN(C(c2ccccc2)c2ccc(Cl)cc2Cl)CC1 (stereo not shown) [Compound 3, 1-{4-[(2,4-Dichloro-phenyl)-phenyl-methyl]-piperazin-1-yl}-2-diphenylamino-ethanone] | 550 | 460 | 6000 | – | no effect |
| CN1CCCC(CN2CCN(C(=O)CN(c3ccccc3)c3ccccc3)CC2)C1 (stereo not shown) [Compound 10, 2-Diphenylamino-1-[4-(1-methyl-piperidin-3-ylmethyl)-piperazin-1-yl]-ethanone] | 1100 | 980 | 2000 | 10000 | – |
| CN(C)CCCN1CCN(CC(=O)N(c2ccccc2)c2ccccc2)CC1 [Compound 26, 2-[4-(3-Dimethylamino-propyl)-piperazin-1-yl]-N,N-diphenyl-acetamide] | 350 | 340 | 1000 | – | no effect |

The remaining lines, values ahead:

| IC50 [1, 3] [nM] | IC50 [1, 4] [nM] | IC50 [2, 5] [nM] | IC50 [2, 6] [nM] | IC50 - 100 mV [2, 7] | Structure (SMILES) |
| --- | --- | --- | --- | --- | --- |
| 290 | 260 | 1300 | – | no effect | O=C(CN1CCN(C(c2ccccc2)c2ccccc2)CC1)N(c1ccccc1)c1ccccc1 [Compound 16, 2-(4-Benzhydryl-piperazin-1-yl)-N,N-diphenyl-acetamide] |
| 1760 | 1250 | 84 | 229 | – | Cc1ccc(C(c2ccccc2)N2CCN(CC(=O)N(c3ccccc3)c3ccccc3)CC2)c(C)c1 (stereo not shown) [Compound 18, 2-{4-[(2,4-Dimethyl-phenyl)-phenyl-methyl]-piperazin-1-yl}-N,N-diphenyl-acetamide] |
| 124 | 52 | 34 | 134 | – | O=C(CN1CCN(C(c2ccccc2)c2ccccc2Cl)CC1)N(c1ccccc1)c1ccccc1 (stereo not shown) [Compound 21, 2-{4-[(2-Chloro-phenyl)-phenyl-methyl]-piperazin-1-yl}-N,N-diphenyl-acetamide] |
| 330 | 320 | 1200 | – | no effect | O=C(CN(c1ccccc1)c1ccccc1)N1CCN(C(c2ccccc2)c2ccccc2Cl)CC1 (stereo not shown) [Compound 6, 1-{4-[(2-Chloro-phenyl)-phenyl-methyl]-piperazin-1-yl}-2-diphenylamino-ethanone] |
| 460 | 460 | 3700 | 5700 | – | CN1CCC(CN2CCN(CC(=O)N(c3ccccc3)c3ccccc3)CC2)CC1 [Compound 25, 2-[4-(1-Methyl-piperidin-4-ylmethyl)-piperazin-1-yl]-N,N-diphenyl-acetamide] |
